Test results reported in US8524755B2 (priority 2009, dated 2013).

Columns and labels:
Cannabinoid CB2 (h) = molecular target: T1, Cannabinoid CB2 (h) (Homo sapiens, UniProt P34972); assay: Binding CB2 (h) (ag); conditions: read-out: % Inhibition of Control Specific Binding @ 10 μM
T1 construct: expressed in transfected cells; host or cells: CHO cells
Experimental: (§1) Radioligand binding assay methods utilized to measure the activity of compounds of the invention will be familiar to those skilled in the art. In each assay case, the assay components such as, for example, the cell-type, ligand, reference compound and the like, will be familiar to practitioners of such an assay.
(§2) Analysis and Expression of Results: Compounds of the invention were tested in the biochemical assays and percent inhibition of specific binding was determined. The specific ligand binding to the receptors is defined as the difference between the total binding and the nonspecific binding determined in the presence of an excess of unlabelled ligand. The results are expressed as a percent inhibition of control specific binding (100−((measured specific binding/control specific binding)×100)) obtained in the presence of test compounds.

CysLT1 (LTD4) (h) = molecular target: T2, CysLT1 (LTD4) (h) (Homo sapiens, UniProt Q9Y271); assay: Binding CysLT1 (LTD4) (ag); conditions: read-out: % Inhibition of Control Specific Binding @ 10 μM
T2 construct: expressed in transfected cells; host or cells: CHO cells
T2 sequence (Q9Y271 1-337): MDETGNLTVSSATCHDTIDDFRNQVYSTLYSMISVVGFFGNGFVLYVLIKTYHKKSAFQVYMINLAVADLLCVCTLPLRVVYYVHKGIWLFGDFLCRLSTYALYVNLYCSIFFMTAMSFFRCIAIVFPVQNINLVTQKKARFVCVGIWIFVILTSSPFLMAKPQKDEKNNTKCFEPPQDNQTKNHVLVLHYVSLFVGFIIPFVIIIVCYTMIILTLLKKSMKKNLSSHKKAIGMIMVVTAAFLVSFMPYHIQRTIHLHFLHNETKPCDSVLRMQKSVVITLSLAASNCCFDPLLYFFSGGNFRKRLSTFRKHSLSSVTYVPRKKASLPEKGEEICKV
Experimental: as §1, §2

PCP = assay: Binding PCP (aa); parameters: species or system rat
Experimental: as §1, §2

Glucocorticoid GR (h) = molecular target: T3, Glucocorticoid GR (h) (Homo sapiens, UniProt P04150); assay: Binding GR (h) (ag); conditions: read-out: % Inhibition of Control Specific Binding @ 10 μM
T3 construct: IM-9 cells (cytosol); endogenous in cells; host or cells: IM-9 cells (cytosol)
T3 sequence (P04150 1-777): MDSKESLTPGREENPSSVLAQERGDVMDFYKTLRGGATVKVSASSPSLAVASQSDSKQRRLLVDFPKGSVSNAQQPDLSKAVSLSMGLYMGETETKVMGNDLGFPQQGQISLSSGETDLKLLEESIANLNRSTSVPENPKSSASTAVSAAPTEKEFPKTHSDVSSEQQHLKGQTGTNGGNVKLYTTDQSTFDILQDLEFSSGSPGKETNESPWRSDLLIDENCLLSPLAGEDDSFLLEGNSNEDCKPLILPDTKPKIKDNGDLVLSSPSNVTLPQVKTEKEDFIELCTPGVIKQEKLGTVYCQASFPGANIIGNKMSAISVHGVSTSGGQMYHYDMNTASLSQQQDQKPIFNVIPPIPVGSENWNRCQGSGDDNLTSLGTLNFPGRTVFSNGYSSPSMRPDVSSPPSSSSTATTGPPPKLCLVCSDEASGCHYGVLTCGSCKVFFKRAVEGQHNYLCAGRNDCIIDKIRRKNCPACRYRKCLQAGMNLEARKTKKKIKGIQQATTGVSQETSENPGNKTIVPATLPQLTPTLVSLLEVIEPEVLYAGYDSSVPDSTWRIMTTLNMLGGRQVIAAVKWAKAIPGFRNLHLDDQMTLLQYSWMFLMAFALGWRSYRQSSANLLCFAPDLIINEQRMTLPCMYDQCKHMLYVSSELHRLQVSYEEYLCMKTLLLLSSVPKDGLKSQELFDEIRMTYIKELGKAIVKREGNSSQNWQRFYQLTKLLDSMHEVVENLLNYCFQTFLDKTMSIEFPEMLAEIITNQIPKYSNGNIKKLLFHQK
Experimental: as §1, §2

Estrogen ER (ns) (h) = molecular target: T4, Estrogen ER (ns) (h) (Homo sapiens, UniProt P03372); assay: Binding ER (ns) (h) (ag); conditions: read-out: % Inhibition of Control Specific Binding @ 10 μM
T4 construct: MCF-7 cells (cytosol); endogenous in cells; host or cells: MCF-7 cells (cytosol)
T4 sequence (P03372 whole entry): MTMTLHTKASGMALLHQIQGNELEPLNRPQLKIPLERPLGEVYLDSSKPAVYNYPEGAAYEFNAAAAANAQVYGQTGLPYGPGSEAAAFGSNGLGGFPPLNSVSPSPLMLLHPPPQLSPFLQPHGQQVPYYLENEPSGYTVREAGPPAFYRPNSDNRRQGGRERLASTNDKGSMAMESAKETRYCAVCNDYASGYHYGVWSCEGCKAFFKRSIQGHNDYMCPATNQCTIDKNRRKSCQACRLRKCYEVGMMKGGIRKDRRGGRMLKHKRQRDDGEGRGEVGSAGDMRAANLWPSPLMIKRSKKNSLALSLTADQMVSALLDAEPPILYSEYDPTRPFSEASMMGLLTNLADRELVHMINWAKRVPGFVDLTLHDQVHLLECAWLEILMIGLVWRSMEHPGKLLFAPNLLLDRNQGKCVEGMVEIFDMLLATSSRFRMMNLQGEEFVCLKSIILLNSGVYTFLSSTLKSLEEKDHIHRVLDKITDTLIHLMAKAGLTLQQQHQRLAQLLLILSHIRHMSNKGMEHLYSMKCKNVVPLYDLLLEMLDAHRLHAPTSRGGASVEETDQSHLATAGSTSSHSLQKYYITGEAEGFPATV
Experimental: as §1, §2

adenylyl cyclase (basal) = assay: Enzyme assay adenylyl cyclase (basal); type: biochemical, rat
From the text: The enzyme assays provided below will be familiar to those skilled in the art.
Analysis and Expression of Results: The results are expressed as a percent of control specific activity ((measured specific activity/control specific activity)×100) obtained in the presence of the test compounds.

[1] = molecular target: T5, human GABAA α1β3 receptor (Homo sapiens, UniProt P14867+P28472); assay: cell-based; conditions: for inhibition at 100 µM: read-out: α1β3 GABAA % Inhibition @ 100 μM; for IC50: α1β3 GABAA IC50 (μM)
T5 construct: expressed in transfected cells; host or cells: Xenopus laevis oocytes, cDNA injection
T5 sequence (P14867 28-456): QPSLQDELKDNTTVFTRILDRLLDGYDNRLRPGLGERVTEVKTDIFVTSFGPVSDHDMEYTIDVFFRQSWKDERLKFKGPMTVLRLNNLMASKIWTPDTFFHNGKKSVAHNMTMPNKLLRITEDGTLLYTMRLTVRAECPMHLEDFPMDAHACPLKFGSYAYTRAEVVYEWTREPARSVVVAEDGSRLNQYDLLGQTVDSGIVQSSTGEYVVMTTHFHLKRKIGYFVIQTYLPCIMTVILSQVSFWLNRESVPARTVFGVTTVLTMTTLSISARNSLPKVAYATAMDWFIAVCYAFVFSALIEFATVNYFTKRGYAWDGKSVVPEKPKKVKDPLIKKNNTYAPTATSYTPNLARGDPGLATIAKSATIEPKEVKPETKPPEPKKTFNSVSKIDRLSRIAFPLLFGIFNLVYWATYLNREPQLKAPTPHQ
T5 sequence (P28472 26-473): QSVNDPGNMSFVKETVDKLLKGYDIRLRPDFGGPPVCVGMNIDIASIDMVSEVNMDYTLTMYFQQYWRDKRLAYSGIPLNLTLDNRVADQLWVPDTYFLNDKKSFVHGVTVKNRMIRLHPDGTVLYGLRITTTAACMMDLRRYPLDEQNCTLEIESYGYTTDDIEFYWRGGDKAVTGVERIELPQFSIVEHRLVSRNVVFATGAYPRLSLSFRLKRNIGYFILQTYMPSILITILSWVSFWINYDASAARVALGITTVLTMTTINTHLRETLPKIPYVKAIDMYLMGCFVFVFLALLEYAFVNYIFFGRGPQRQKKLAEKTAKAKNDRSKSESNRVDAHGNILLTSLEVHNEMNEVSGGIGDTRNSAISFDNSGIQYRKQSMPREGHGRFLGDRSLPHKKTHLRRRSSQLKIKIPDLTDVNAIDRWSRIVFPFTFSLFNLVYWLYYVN

T1 sequence (P34972 whole entry): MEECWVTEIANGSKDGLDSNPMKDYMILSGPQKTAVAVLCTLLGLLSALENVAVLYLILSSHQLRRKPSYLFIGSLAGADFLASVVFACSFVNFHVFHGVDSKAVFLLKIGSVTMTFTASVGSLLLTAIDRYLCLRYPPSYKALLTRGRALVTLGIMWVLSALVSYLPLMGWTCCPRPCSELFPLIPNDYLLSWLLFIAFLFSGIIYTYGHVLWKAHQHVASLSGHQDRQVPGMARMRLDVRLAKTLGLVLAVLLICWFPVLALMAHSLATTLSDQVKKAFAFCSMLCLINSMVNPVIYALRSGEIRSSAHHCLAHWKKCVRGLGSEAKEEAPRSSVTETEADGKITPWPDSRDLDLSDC

Compound | inhibition at 10 µM (Cannabinoid CB2 (h)) [%] | inhibition at 10 µM (CysLT1 (LTD4) (h)) [%] | % Inhibition of Control Specific Binding @ 10 μM (PCP) [%] | inhibition at 10 µM (Glucocorticoid GR (h)) [%] | inhibition at 10 µM (Estrogen ER (ns) (h)) [%] | % Stimulation Relative to Control @ 10 μM (adenylyl cyclase (basal)) [%] | inhibition achieved at the highest concentration [1] [%] | inhibition at 100 µM [1] [%] | IC50 [1] [µM]
CC1(C)C(=O)N(c2ccc(C#N)c(C(F)(F)F)c2)C(=S)N1c1ccc(C(=O)O)c(F)c1 [(MI), 4-(3-(4-cyano-3-(trifluoromethyl)phenyl)-5,5-dimethyl-4-oxo-2-thioxoimidazolidin-1-yl)-2-fluorobenzoic acid] | -2 | 3 | 0 | 5 | -8 | 0 | 75±18.4 | 90 | 20.7 ± 6
CC1(C)C(=O)N(c2ccc(C#N)c(C(F)(F)F)c2)C(=S)N1c1ccc(C(N)=O)c(F)c1 [(MII), 4-(3-(4-Cyano-3-(trifluoromethyl)phenyl)-5,5-dimethyl-4-oxo-2-thioxoimidazolidin-1-yl)-2-fluorobenzamide] | 1 | 18 | 5 | 30 | 3 | 3 | 80±10 | 88 | 
CC1(C)C(=O)N(c2ccc(C#N)c(C(F)(F)F)c2)C(=O)N1c1ccc(C(N)=O)c(F)c1 [(MIII), 4-(3-(4-cyano-3-(trifluoromethyl)phenyl)-5,5-dimethyl-2,4-dioxoimidazolidin-1-yl)-2-fluorobenzamide] | -3 | 11 | 2 | 0 | -2 | 4 |  | 57 | 4 ± 3.15
CNC(=O)c1ccc(N2C(=O)N(c3ccc(C#N)c(C(F)(F)F)c3)C(=O)C2(C)C)cc1F [(MIV), 4-(3-(4-cyano-3-(trifluoromethyl)phenyl)-5,5-dimethyl-2,4-dioxoimidazolidin-1-yl)-2-fluoro-N-methylbenzamide] | 1 | 11 | 4 | 4 | -11 | 11 |  | 78 | 
